Results published in article PMC10488193, “Evaluation of the Chemical Stability, Membrane Permeability and Antiproliferative Activity of Cyclic Diarylheptanoids from European Hornbeam (Carpinus betulus L.)” (International Journal of Molecular Sciences, 2023).
Like-named read-outs stand apart in the source and are kept apart here. Blank lines part the entries; values can stand above or below the compound they belong to.

Legend:
[1] = set-up: method as in PMID 28074653; details: ambient temperature, solvolysis and oxidative degradation; cited from earlier work
[2] = system: U87 (glioblastoma); assay: In vitro antiproliferative activity, Alamar Blue assay; assay type: cell-based; details: Homo sapiens, read-out: IC50 ± SD
Description: (§1) For the experiments, the following human cell lines were used: A2058 (melanoma, derived from metastatic site: lymph node), HepG2 (hepatocellular carcinoma), U87 (glioblastoma), HT-29 (colorectal carcinoma) and HL-60 (acute promyelocytic leukaemia). Cell lines were generous gifts from Dr. […] (Department of Experimental Pharmacology, National Institute of Oncology, Budapest, Hungary). […] The cultures were maintained at 37 °C in a humidified atmosphere with 5% CO2. The cells were grown to confluency and then divided into 96-well tissue culture plates (Sarstedt, Nümbrecht, Germany) with an initial cell number of 5000 cells/well. Cells were incubated at 37 °C in a 5% CO2 humidified atmosphere overnight. Before the assay, 50 μL of the supernatant was removed and replaced with a 50 μL serum-free medium (SFM). […] The cells were treated for 24 h with the compounds and negative control cells (no compound control) were treated with SFM only (incubated at 37 °C). […] The percentage of cytostasis was calculated with the following equation: […] Data were evaluated with Excel (version: 365; Microsoft, Redmond, WA, USA) and the curves were defined using Microcal OriginPro (version: 2018; OriginLab, Northampton, MA, USA) software. In each case, two independent experiments were carried out with four parallel measurements and the mean IC50 values together with ±SD were represented. The Excel (version: 365) (Microsoft, Redmond, WA, USA) and Microcal OriginPro (version: 2018) (OriginLab, Northampton, MA, USA) softwares were used for data evaluation.

[3] = system: HT-29 (colorectal carcinoma); assay: as above; assay type: cell-based; details: Homo sapiens
Description: as §1

[4] = system: HL-60 (acute promyelocytic leukaemia); assay: as above; assay type: cell-based; details: Homo sapiens
Description: as §1

[5] = system: HepG2 (hepatocellular carcinoma); assay: as above; assay type: cell-based; details: Homo sapiens
Description: as §1

[6] = system: A2058 (melanoma, derived from metastatic site: lymph node); assay: as above; assay type: cell-based; details: Homo sapiens
Description: as §1

[7] = cited from earlier work
[8] = U87, 24 h treatment, then three days culture, n = 2
[9] = HepG2, 24 h treatment, then three days culture, n = 2, read-out: IC50 ± SD
[10] = A2058, 24 h treatment, then three days culture, n = 2, read-out: IC50 ± SD

SMILES: COc1cc(/C=C/C(=O)CC(=O)/C=C/c2ccc(O)c(OC)c2)ccc1O [Curcumin, curcumin]
half-life [1]: less than an hour

SMILES: COc1cccc2c1C(=O)c1c(O)c3c(c(O)c1C2=O)C[C@@](O)(C(C)=O)C[C@@H]3O[C@H]1C[C@H](N)[C@H](O)[C@H](C)O1 [Dau, daunomycin, reference compound]
IC50 [2]: 0.4 ± 0.05 µM
IC50 ([3]; HT-29, read-out: IC50 ± SD): 0.2 ± 0.01 µM
IC50 ([4]; HL-60, read-out: IC50 ± SD): 0.02 ± 0.01 µM
IC50 ([5]; HepG2, read-out: IC50 ± SD): 1.2 ± 0.2 µM
IC50 ([6]; A2058, read-out: IC50 ± SD): 0.16 µM

IC50 [2, 8]: 27 ± 2.3 µM
IC50 ([3]; HT-29, 24 h treatment, then three days culture, n = 2, read-out: IC50 ± SD): 18.5 ± 1.7 µM
IC50 [5, 9]: 20.9 ± 1.2 µM
IC50 [6, 10]: 8.9 ± 0.2 µM
SMILES: COc1cc([C@@H]2c3cc4c(cc3[C@@H](O[C@@H]3O[C@@H]5CO[C@@H](C)O[C@H]5[C@H](O)[C@H]3O)[C@H]3COC(=O)[C@H]23)OCO4)cc(OC)c1O [Etoposide, etoposide, reference compound]

SMILES: O=C(/C=C/CCc1ccc(O)c(O)c1)CCc1ccc(O)c(O)c1 [Hirsutenone, hirsutenone]
half-life ([7]; aqueous solution, 25 °C): 139 h
half-life ([7]; aqueous solution, 50 °C): 38.2 h
half-life ([7]; room temperature): less than seven days

IC50 [2, 8]: 0.8 ± 0.3 µM
IC50 ([4]; HL-60, 24 h treatment, then three days culture, n = 2, read-out: IC50 ± SD): 4.5 ± 0.7 µM
IC50 [5, 9]: 5.8 ± 0.7 µM
IC50 [6, 10]: 6.8 ± 1.2 µM
SMILES: O=C(Nc1ccc(C(F)(F)F)cc1)c1cc(Cl)ccc1O [Sal, 5-chloro-2-hydroxy-N-[4-(trifluoromethyl)phenyl]benzamide, reference compound]
